{"source": "paper PMC12613816", "about": "“Discovery of Novel Isoxazole-Based Small-Molecule Toll-Like Receptor 8 Antagonists” (Journal of Medicinal Chemistry, 2025)", "key": {"hTLR7": {"target": "T1, hTLR7 (Homo sapiens, UniProt Q9NYK1)", "T1 construct": "host or cells: HEK293 (HEK-Blue hTLR7)", "T1 sequence (Q9NYK1 27-1049)": "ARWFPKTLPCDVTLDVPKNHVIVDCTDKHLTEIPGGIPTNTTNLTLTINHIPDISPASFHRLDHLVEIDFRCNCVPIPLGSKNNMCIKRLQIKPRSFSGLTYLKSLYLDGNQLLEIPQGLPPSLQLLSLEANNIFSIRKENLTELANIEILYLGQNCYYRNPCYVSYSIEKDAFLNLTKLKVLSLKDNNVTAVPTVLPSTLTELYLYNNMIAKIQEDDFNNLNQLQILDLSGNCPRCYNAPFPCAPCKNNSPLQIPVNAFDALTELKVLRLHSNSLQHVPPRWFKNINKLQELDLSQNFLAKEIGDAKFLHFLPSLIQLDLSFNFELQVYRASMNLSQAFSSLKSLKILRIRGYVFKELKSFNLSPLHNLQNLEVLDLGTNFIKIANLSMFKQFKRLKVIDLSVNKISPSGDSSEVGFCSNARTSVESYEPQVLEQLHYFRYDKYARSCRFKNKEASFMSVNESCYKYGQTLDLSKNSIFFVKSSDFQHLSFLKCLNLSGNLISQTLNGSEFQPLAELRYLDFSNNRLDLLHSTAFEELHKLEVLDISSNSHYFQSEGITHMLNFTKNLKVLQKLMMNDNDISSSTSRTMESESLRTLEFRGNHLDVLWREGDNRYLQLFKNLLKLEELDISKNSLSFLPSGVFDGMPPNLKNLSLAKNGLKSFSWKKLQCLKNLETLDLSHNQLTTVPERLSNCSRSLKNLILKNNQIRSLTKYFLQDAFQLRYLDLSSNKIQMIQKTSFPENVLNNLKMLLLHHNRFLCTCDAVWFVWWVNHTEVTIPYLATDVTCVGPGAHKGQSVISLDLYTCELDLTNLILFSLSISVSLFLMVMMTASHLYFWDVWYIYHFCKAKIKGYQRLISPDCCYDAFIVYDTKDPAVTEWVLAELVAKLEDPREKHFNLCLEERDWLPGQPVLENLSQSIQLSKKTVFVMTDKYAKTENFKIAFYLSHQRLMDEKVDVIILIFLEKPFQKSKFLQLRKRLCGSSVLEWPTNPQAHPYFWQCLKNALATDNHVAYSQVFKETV", "assay": "Inhibition of CL307-stimulated NF-κB activity (SEAP reporter) in hTLR7-HEK293 reporter cells", "format": "cell-based", "details": "read-out: IC50 [μM] (95% CI) hTLR7-HEK293; inhibition of NF-κB activity; 1 h preincubation, CL307 (1.7 µM) 24 h", "excerpt": "For stimulation experiments, cells were washed with phosphate-buffered saline (PBS, Sigma-Aldrich) and media was replaced with OptiMEM (Thermo Fisher Scientific, Darmstadt, Germany). […] The following TLR ligands were used: Pam2CSK4, Pam3CSK4, poly(I:C) (HMW), LPS from Escherichia coli O111:B4 (LPS-EB Ultrapure), flagellin from Bacillus subtilis (flagellin-BS Ultrapure), CL307, CL075, R848, TL8-506, ODN2006 (all from InvivoGen, Toulouse, France), and Enpatoran (BIOZOL Diagnostika, Germany)."}, "TLR8 F495L mutation": {"target": "T2, TLR8 F495L mutation (Homo sapiens, UniProt Q9NR97, F495L)", "T2 construct": "host or cells: HEK-Blue Null1 cells, transient transfection with PEI Max", "T2 sequence (Q9NR97 1-1059 isoform Q9NR97-2 F513L)": "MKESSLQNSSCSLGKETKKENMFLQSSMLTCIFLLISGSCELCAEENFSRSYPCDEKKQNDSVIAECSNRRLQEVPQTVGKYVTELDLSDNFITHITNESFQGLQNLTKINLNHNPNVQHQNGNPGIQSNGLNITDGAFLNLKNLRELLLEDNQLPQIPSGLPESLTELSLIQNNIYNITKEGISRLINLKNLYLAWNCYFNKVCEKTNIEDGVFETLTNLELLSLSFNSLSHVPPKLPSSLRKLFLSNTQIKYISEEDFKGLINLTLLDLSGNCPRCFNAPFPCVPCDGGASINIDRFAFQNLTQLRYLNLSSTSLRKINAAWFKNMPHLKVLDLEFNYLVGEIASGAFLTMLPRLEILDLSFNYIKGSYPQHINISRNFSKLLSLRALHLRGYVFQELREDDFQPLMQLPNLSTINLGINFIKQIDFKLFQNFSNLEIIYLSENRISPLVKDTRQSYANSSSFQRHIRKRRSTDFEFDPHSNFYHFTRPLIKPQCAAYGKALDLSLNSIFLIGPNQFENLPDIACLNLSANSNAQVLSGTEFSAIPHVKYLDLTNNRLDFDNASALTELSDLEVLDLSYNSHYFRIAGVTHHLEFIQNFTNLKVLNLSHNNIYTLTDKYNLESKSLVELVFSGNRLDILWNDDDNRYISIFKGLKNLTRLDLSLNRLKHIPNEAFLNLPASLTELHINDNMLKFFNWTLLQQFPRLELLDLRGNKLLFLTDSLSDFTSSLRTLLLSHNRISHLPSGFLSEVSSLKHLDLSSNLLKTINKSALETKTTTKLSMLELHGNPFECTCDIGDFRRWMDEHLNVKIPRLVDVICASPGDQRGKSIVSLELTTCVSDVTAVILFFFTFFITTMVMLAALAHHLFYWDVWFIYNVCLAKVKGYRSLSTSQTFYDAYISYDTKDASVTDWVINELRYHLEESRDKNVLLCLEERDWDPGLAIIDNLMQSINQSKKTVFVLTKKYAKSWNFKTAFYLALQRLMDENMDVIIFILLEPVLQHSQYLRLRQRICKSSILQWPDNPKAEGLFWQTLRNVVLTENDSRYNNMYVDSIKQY", "assay": "NF-κB SEAP reporter in HEK293 reporter control cells transfected with TLR8 F495L mutant plasmid", "format": "cell-based", "details": "compound 10 2 μM, Enpatoran 1 μM; TL8-506 3 μM or CL075 4 μM, 24 h"}, "TLR8 [1]": {"target": "T3, TLR8 (Homo sapiens, UniProt Q9NR97)", "T3 sequence (Q9NR97 27-1041)": "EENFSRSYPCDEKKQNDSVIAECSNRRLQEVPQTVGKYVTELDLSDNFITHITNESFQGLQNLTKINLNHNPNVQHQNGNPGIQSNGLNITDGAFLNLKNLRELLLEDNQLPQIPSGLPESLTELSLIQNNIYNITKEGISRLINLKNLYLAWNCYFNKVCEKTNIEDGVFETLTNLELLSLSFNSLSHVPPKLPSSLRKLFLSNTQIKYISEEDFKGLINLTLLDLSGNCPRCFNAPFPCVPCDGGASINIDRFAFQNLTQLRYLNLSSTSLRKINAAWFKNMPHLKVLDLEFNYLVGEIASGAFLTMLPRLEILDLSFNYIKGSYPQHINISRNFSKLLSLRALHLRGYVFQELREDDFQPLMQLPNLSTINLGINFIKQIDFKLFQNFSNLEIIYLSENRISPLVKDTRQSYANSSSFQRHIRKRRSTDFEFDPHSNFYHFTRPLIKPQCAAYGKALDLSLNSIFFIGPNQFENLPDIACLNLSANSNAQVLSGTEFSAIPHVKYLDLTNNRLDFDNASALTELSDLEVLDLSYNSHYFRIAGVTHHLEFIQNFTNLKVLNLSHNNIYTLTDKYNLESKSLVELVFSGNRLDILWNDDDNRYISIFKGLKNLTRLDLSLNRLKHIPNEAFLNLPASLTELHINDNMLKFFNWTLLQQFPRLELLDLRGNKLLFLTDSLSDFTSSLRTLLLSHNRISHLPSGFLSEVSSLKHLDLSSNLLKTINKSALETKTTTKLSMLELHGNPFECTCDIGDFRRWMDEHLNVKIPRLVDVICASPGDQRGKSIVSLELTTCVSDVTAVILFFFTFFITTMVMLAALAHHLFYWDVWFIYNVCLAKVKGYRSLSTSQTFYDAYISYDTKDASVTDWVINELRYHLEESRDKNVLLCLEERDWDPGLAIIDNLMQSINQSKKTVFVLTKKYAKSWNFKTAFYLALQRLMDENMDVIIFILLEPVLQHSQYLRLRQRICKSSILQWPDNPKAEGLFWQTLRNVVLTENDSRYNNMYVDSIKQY", "assay": "Inhibition of TL8-506-stimulated NF-κB activity (SEAP reporter, QuantiBlue) in hTLR8-HEK293 reporter cells", "format": "cell-based", "parameters": "host or cells: HEK293 (HEK-Blue hTLR8)", "details": "TL8-506 (0.6 μM) 24 h"}, "TLR8 [2]": {"target": "T3, TLR8", "assay": "Inhibition of TL8-506-stimulated TNF release (ELISA) in PBMCs", "details": "read-out: IC50 [μM] (95% CI) TNF release PBMCs, 1 h preincubation, TL8-506 (0.6 μM) 4 h", "quoted_text": "For the calculation of concentration–response curves, nonlinear regression with variable slope (four parameters) was used. Mean ± SEM (n = 3).\nPMBCs were washed three times with PBS containing ETDA and afterward seeded in 24-well plates (5 × 10^6 cells/well)."}}}
{"smiles": "N#Cc1ccc(N2C[C@H](N)C[C@H](C(F)(F)F)C2)c2cccnc12", "note": "[Enpatoran, reference compound]", "values": [{"measurement": "IC50", "setting": "hTLR7", "value": "≤ 0.05", "unit": "µM"}, {"measurement": "TLR8 activation in F495L mutation, triggered by CL075 and TL8-506", "setting": "TLR8 F495L mutation", "value": "reduced"}, {"measurement": "inhibition at 10 µM", "setting": "TLR8 [1]; read-out: % inhibition at 10 µM ± SEM (NF-κB activity), 10 µM compound, hTLR8-HEK293", "value": 100, "unit": "%"}, {"measurement": "IC50", "setting": "TLR8 [1]; read-out: IC50 [μM] (95% CI) hTLR8-HEK293, inhibition of NF-κB activity, 1 h preincubation", "value": 0.285, "unit": "µM"}, {"measurement": "IC50", "setting": "TLR8 [2]", "value": 0.074, "unit": "µM"}]}
